Measurements reported in patent publication US20260317304A1, “TEAD INHIBITORS AND METHODS OF USE” (Sporos BioDiscovery, Inc., priority 2022, published 2026).

Columns and labels:
[1] = test system: MSTO-211H xenograft; experiment: Mouse xenograft MSTO-211H tumors compared to prior art TEAD inhibitor; format: in vivo, BALB/c nude mice; settings: 7 days of treatment, PO BID, 12.5 mg/kg Compound 5
Method: This study evaluated the in vivo anti-tumor efficacy of test compounds in BALB/c nude mice for treatment of MSTO-211H xenograft of lung cancer.
The MSTO-211H tumor cells were maintained in vitro in RPMI 1640 medium supplemented with 10% Fetal bovine serum and 1% Antibiotic-Antimycotic at 37° C. in an atmosphere of 5% CO2 in air. The tumor cells were routinely subcultured twice weekly by trypsin-EDTA. The cells growing in an exponential growth phase were harvested and counted for tumor inoculation.
Each mouse was inoculated subcutaneously at the right flank with MSTO-211H tumor cells (10×10^6+50% matrigel/0.2 mL) for tumor development. Test subjects received vehicle (e.g., 0.5% CMC-Na+1% Tween80) beginning on day 7 after cell inoculation. […]
The major endpoint was to determine if the tumor growth could be delayed. Tumor size was measured twice a week in two dimensions using a caliper, and the volume was expressed in mm^3 using the formula: V=0.5 a×b^2 where a and b are the long and short diameters of the tumor, respectively. […]
Summary statistics, including mean and the standard error of the mean (SEM), were calculated for the tumor volume of each group at each time point. […]
One-tailed T test was performed to compare tumor volumes between two groups. All data were analyzed using GraphPad Prism 6.0. p<0.05 was considered to be statistically significant.

[2] = test system: NCI-H28 cells; experiment: Proliferation and cell viability assay, Cell Titer One; format: cell-based; settings: Homo sapiens, NCI-H28, 144 h; Cell Titer One assay, non-responder, 6 days
Method: Cell proliferation of a TEAD dependent NF2-null mesothelioma cell line, NCI-H226 was assayed using two different protocols. Results were confirmed in two different TEAD-non-dependent lung cancer cell lines, H23 and H28, were used as non-responsive controls, as indicated:
b) Cell Titer One (Promega, #G3582). The effect of the TEAD inhibitors disclosed herein on cell proliferation was also determined using the Promega Substrate Cell Titer Aqueous One Solution Reagent. The TEAD inhibitors were evaluated for the effects on cell proliferation responder (H226) and non-responder negative control cancer cell lines (CAMA1, H28), as well as non-transformed normal human cells (HUVEC, NHDF). Dissociated cells were resuspend in media (depending on cell line, either in DMEM, RPMI, or EMEM all with 10% FBS, with gentamicin as an antibiotic). Cells were seeded at 100 μL/well at 750 cells per well in 96-well plates and allowed to settle and attach. After an incubation of 24 hrs (37° C., 5% CO2, humidified incubator), 100 μL of test compound-containing media was added. A dilution series of 2000× concentrated stock of test compounds was prepared in DMSO, for final concentrations from 0.1 to 10,000 nM. After addition of test compound-containing media, cells were incubated for 6 days at 37° C., 5% CO2, humidified incubators). […] The OD was measured using Vmax [Molecular Devices] spectrophotometer plate reader. […]

- IC50 [2]: > 1000 nM
SMILES: Cn1cnc(-c2cc([C@@]3(C)CCNC3=O)ccc2Nc2ccc(C(F)(F)F)cc2)c1 (single isomer, unassigned) [Compound 5, 3-methyl-3-(3-(1-methyl-1H-imidazol-4-yl)-4-((4-(trifluoromethyl)phenyl)amino)phenyl)pyrrolidin-2-one]
- change in tumor volume (in words) [1]: tumor reduction was observed
